Consider 3 substances from paper PMC5814047, “Peptidic inhibitors of insulin-degrading enzyme with potential for dermatological applications discovered via phage display” (PLoS ONE, 2018).

Assay [1] deals with T1, IDE (Homo sapiens, UniProt P14735).
T1 construct: made in house; host or cells: bacteria
T1 sequence (P14735 1-1019): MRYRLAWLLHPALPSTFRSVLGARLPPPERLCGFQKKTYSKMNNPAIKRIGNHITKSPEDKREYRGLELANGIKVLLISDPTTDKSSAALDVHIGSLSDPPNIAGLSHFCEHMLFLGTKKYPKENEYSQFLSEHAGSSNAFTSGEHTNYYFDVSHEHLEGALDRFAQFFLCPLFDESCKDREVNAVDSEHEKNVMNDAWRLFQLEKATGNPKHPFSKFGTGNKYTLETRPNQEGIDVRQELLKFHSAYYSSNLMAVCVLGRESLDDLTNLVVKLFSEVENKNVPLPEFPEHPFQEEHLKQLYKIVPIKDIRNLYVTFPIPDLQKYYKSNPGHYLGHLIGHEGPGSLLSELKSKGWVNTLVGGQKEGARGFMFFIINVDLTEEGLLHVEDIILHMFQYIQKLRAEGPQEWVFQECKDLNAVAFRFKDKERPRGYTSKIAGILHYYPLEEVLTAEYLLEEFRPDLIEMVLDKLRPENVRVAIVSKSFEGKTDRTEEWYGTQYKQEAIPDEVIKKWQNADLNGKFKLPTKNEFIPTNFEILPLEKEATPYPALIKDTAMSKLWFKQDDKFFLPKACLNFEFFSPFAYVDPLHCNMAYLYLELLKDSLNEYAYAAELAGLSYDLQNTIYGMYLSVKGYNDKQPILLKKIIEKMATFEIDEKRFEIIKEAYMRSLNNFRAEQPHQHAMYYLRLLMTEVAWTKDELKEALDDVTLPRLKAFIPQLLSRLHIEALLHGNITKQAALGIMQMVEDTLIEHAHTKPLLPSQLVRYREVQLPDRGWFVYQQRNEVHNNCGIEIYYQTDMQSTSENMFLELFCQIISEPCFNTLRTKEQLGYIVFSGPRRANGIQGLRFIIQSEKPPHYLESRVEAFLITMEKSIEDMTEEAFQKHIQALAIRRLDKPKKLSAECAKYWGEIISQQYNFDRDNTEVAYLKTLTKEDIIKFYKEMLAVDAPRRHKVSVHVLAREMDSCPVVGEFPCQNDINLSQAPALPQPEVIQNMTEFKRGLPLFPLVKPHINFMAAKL
Kind of assay: biochemical. The conditions noted are these: for IC50: FRET1; for IC50 <500 uM?: initial test at 500 uM. The essentials: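 Recombinant human IDE (1 nM, bacterially expressed) degraded FRET1 substrate (5 μM), fluoresceinated biotinylated amyloid β (500 nM) or human insulin (50 nM) in PBS with 0.05% BSA. Peptides tested included N-acetylated and C-amidated variants.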

Assay [2] deals with T1, IDE. Kind of assay: Vulnerability of peptides to degradation by IDE: 0 vs 4 h pre-incubation, then FRET1 assay. It counts as biochemical. The conditions noted are these: for Ki: Cheng-Prusoff from IC50, FRET1 KM 10 uM, substrate 5 uM; for remaining activity at 0.12207 µM / remaining activity at 0.488281 µM / remaining activity at 1.95312 µM / remaining activity at 7.8125 µM / remaining activity at 31.25 µM / remaining activity at 125 µM / remaining activity at 500 µM: 4 h, relative to DMSO-only controls, read-out: Percent Activity (normalized initial velocity of FRET1 hydrolysis); for remaining activity at 0.12207 µM: Cmpd 0.12207 uM; for remaining activity at 0.488281 µM: Cmpd 0.488281 uM; for remaining activity at 1.95312 µM: Cmpd 1.95312 uM; for remaining activity at 7.8125 µM: Cmpd 7.8125 uM; for remaining activity at 31.25 µM: Cmpd 31.25 uM; for remaining activity at 125 µM: Cmpd 125 uM; for remaining activity at 500 µM: Cmpd 500 uM; for IC50: FRET1 assay. The method in brief:
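Recombinant human IDE (1 nM, bacterially purified) degrading FRET1 substrate Mca-peptide-Dnp (5 μM) in PBS with 0.05% BSA; peptides pre-incubated 0 or 4 h before assay. Fluorescence monitored as degradation read-out.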

Setting [3] is: Cheng-Prusoff, KM 10 uM, substrate concentration 5 uM, read-out: Ki values, Mean.
The mark [4] stands for this setting: dose-response, 500 uM, individual runs, read-out: Percent Activity (normalized source data).
Where [5] appears, read: dose-response, read-out: IC50s, Mean.
[6] abbreviates: judged as IC50 <100 uM?, individual replicates, read-out: Percent activity at 500 uM, Replicate 1-4.
[7] abbreviates: substrate FRET1 5 μM, Ki from IC50 with the Cheng-Prusoff equation, read-out: Ki FRET1.
[8] abbreviates: 4-hr incubation, individual runs.
The mark [9] stands for this setting: 4-hr incubation, individual replicates, read-out: IC50s.
Setting [10] is: 4-hr incubation, mean of 2 replicates, read-out: IC50s, Mean.

“And” between values parts separate entries of the source, which are not always exact repeats. Identical values can stand only once. Ends that are not written are not given here.

Broadly, the Ki is a dissociation constant, usually derived from enzyme kinetics or from competition with a known ligand. For VHWDFRQWWQPS [P12-1], the Ki in assay [1] (setting [3]) came to 7.71 µM; in assay [1] (setting [7]), 7.7 ± 0.7 µM; in assay [2] (4-hr incubation) it was 105 µM. For the same substance, the remaining activity at 500 µM came to 0.0455% in assay [1] (setting [4]), 17.6% in assay [1] (setting [6]) and 0.247% in assay [2] (setting [8]). Also, the IC50 is 11.6 µM and 9.84 µM and 13.2 µM in assay [1] (dose-response, individual runs, read-out: IC50s, Run 1-6); 11.6 µM in assay [1] (setting [5]); 154 µM and 160 µM in assay [2] (setting [9]); 157 µM in assay [2] (setting [10]). Further, the “IC50 <500 uM?” value in assay [1] is given as “YES”. The remaining activity at 0.12207 µM in assay [2] (setting [8]) is 97.5%. In addition, in assay [2] (setting [8]), the remaining activity at 0.488281 µM was 104%. Moreover, the remaining activity at 1.95312 µM in assay [2] (setting [8]) turned out to be 99%. The remaining activity at 7.8125 µM in assay [2] (setting [8]) was determined as 73.2%. In addition, the remaining activity at 31.25 µM in assay [2] (setting [8]) came to 42.7%. The remaining activity at 125 µM in assay [2] (setting [8]) turned out to be 10%.
Turning to VHWDFRQWWQPS-NH2 [P12-1A], the inhibitory constant (Ki) in assay [1] (setting [3]) was found to be 5.3 µM; in assay [1] (setting [7]), 5 ± 0.3 µM; in assay [2] (4-hr incubation), 62.2 µM. Moreover, the remaining activity at 0.488281 µM was found to be 88.4% in assay [1] (dose-response, 0.488281 uM, individual runs, read-out: Percent Activity (normalized source data)) and 75% in assay [2] (setting [8]). Further, the remaining activity at 500 µM in assay [1] (setting [4]) was determined as 1.11%; in assay [2] (setting [8]), 21.4%. For the same substance, the IC50 is 7.95 µM in assay [1] (setting [5]); 8.43 µM in assay [2] (0-hr incubation (immediately after combining enzyme and peptide), individual runs, read-out: IC50s); 96.5 µM and 90.2 µM in assay [2] (setting [9]); 93.3 µM in assay [2] (setting [10]). Also, in assay [1], the “IC50 <500 uM?” value was “YES”. In assay [2] (setting [8]), the remaining activity at 0.12207 µM is 79.1%. Further, in assay [2] (setting [8]), the remaining activity at 1.95312 µM amounted to 59.1%. Besides, in assay [2] (setting [8]), the remaining activity at 7.8125 µM was 50.1%. The remaining activity at 31.25 µM in assay [2] (setting [8]) came out at 33.7%. Moreover, the remaining activity at 125 µM in assay [2] (setting [8]) was determined as 12.7%.
WSPISGKFFQRF [P12-4]: the Ki in assay [1] (setting [3]) stood at 3.93 µM; in assay [1] (setting [7]), 3.9 ± 0.5 µM; in assay [2] (4-hr incubation), 259 µM. For the same substance, the remaining activity at 31.25 µM in assay [1] (dose-response, 31.25 uM, individual runs, read-out: Percent Activity (normalized source data)) was 46.9%; in assay [2] (setting [8]), 84.9%. The IC50 in assay [1] (setting [5]) is 5.89 µM; in assay [2] (setting [9]) it was 402 µM and 377 µM; in assay [2] (setting [10]), 389 µM. Also, the “IC50 <500 uM?” value in assay [1] was “YES”. The remaining activity at 500 µM came out at 8.6% in assay [1] (initial test, percent of initial velocity relative to DMSO-only controls, individual replicates, read-out: Percent activity at 500 uM, Replicate 1-4); 15.5% in assay [1] (setting [6]); 30.5% in assay [2] (setting [8]). In addition, in assay [2] (setting [8]), the remaining activity at 0.12207 µM was 89.9%. Further, the remaining activity at 0.488281 µM in assay [2] (setting [8]) amounted to 96.1%. The remaining activity at 1.95312 µM in assay [2] (setting [8]) was determined as 86.6%. The remaining activity at 7.8125 µM in assay [2] (setting [8]) was 80.4%. The remaining activity at 125 µM in assay [2] (setting [8]) was determined as 75.6%.
